The record followed here is ChEMBL document CHEMBL1125190, “Synthesis and anticancer and antiviral activities of various 2'- and 3'-methylidene-substituted nucleoside analogues and crystal structure of 2'-deoxy-2'-methylidenecytidine hydrochloride” (J Med Chem, 1991).

The source made the active and inactive calls. The calls are words filed in the database; no cut-off is given here. Some results are limits rather than exact numbers.

One test concerns CCRF S-180. Kind of test: Concentration required to inhibit replication of S-180 cell lines by 50% after 72 hr incubation. The class given is functional. The conditions noted are these: Mus musculus, CCRF S-180, 72 h; read-out: ED50 (the source's name).
Test [1] concerns CCRF-CEM. Briefly: Concentration required to inhibit replication of CCRF-CEM cell lines by 50% after 72 hr incubation. In kind it is functional. As to conditions: Homo sapiens, read-out: ED50 (the source's name).
In test [2] the test system is L1210. Kind of test: (§1) Ratio of survival time of treated to control mice at 75 mg/kg. In kind it is functional, Mus musculus.
The subject of another test is Human alphaherpesvirus 1. Briefly: Concentration required to inhibit 90% of virus yield during 24-h growth period in HSV-1 cell lines. The class given is functional.
For the next test, the system named is P388. Briefly: Concentration required to inhibit replication of P388 cell lines by 50% after 72 hr incubation. As to conditions: Mus musculus, P388, 72 h; read-out: ED50 (the source's name). In kind it is functional.
The test system of test [3] is CCRF-CEM. Briefly: Concentration required to inhibit replication of CCRF-CEM deoxycytidine kinase deficient variant CCRF-CEM(dCK-). As to conditions: Homo sapiens, read-out: ED50 (the source's name). In kind it is functional.
The test system of test [4] is L1210. Briefly: (§2) Ratio of survival time of treated to control mice at 25 mg/kg. In kind it is functional, Mus musculus.
In test [5] the test system is L1210. Briefly: (§3) Ratio of survival time of treated to control mice at 50 mg/kg. The class given is functional, Mus musculus.
The test system of test [6] is L1210. Briefly: Concentration required to inhibit replication of L1210 cell lines by 50% after 72 hr incubation. In kind it is functional. As to conditions: Mus musculus, L1210, 72 h; read-out: ED50 (the source's name).
The subject of test [7] is L1210. Briefly: (§4) Average survival time includes only those mice that died prior to day 60 at 50 mg/kg. In kind it is functional, Mus musculus.
The subject of another test is HSV-2. Kind of test: Concentration required to inhibit 90% of virus yield during 24-h growth period in HSV-2 cell lines. The class given is functional, Human alphaherpesvirus 2.
Test [8] has as its system L1210. Kind of test: (§5) Average survival time includes only those mice that died prior to day 60 at 25 mg/kg. The class given is functional, Mus musculus.
Test [9] relates to L1210. Briefly: (§6) Average survival time includes only those mice that died prior to day 60 at 75 mg/kg. The class given is functional, Mus musculus.
Test [10] has as its system Mus musculus. Kind of test: Long time survivors are the number mice that survived for >60 days relative to the number of treated mice 25 mg/kg; 0 / 5. Also on record: dose 25 mg/kg. The class given is functional, organism-based.
The test system of test [11] is Mus musculus. Briefly: Long time survivors are the number mice that survived for >60 days relative to the number of treated mice at 50 mg/kg; 0 / 5. The class given is functional, organism-based. Also on record: dose 50 mg/kg.
The subject of test [12] is Mus musculus. Kind of test: Long time survivors are the number mice that survived for >60 days relative to the number of treated mice at 75 mg/kg; 0 / 5. The class given is functional, organism-based. More on the design: dose 75 mg/kg.
Test [13] deals with Mus musculus. Briefly: Death due to toxicity occurring at a maximum body weight decrease of 10 to 22% from the average post injection body weight at 50 mg/kg; 5 / 5. The class given is functional, organism-based. Also on record: dose 50 mg/kg.
Test [14] relates to Mus musculus. Kind of test: Death due to toxicity occurring at a maximum body weight decrease of 10 to 22% from the average post injection body weight at 75 mg/kg; 5 / 5. In kind it is functional, organism-based. Also on record: dose 75 mg/kg.
Test [15] concerns Mus musculus. Described as §6. In kind it is functional.
Test [16] has as its system Mus musculus. Described as §1. In kind it is functional.
Test [17] concerns Mus musculus. The test is described as §4. The class given is functional.
The test system of test [18] is Mus musculus. The test is described as §3. The class given is functional.
For test [19], the system named is Mus musculus. The test is described as §5. The class given is functional.
The test system of test [20] is Mus musculus. Described as §2. The class given is functional.
Test [21] has as its system Mus musculus. Briefly: Death due to toxicity occurring at a maximum body weight decrease of 10 to 22% from the average post injection body weight at 25 mg/kg; 2 / 5. Also on record: dose 25 mg/kg. The class given is functional, organism-based.
Test [22] concerns Mus musculus. Briefly: T/C*100 represents the ratio of survival time of treated to control mice *100 at 50 mg/kg. In kind it is functional.
Test [23] concerns Mus musculus. Kind of test: T/C*100 represents the ratio of survival time of treated to control mice *100 at 75 mg/kg. The class given is functional.

As for `C=C1[C@H](n2cc(F)c(N)nc2=O)O[C@H](CO)[C@H]1O`, the EC50 is 1.5 µM with CCRF S-180; 0.05 µM with CCRF-CEM [1]; 0.6 µM in the test on P388; 330 µM in the test with CCRF-CEM [3]; 1.2 µM with L1210 [6]. In addition, the T/C in the test on L1210 [2] amounted to 243; in the test on L1210 [4], 316; in the test with L1210 [5], 279. Moreover, the values for the ID90 with Human alphaherpesvirus 1 and in the test on HSV-2 were 50 µM and 5 µM, respectively. Moreover, the entries for the “Average survival (days)” value with L1210 [7], with L1210 [8] and in the test on L1210 [9] were 21.2, 24 and 18.5, respectively.

Regarding `C=C1[C@H](n2cc(C)c(N)nc2=O)O[C@H](CO)[C@H]1O`, the EC50 is more than 100 µM in the test on CCRF S-180, 22 µM in the test on CCRF-CEM [1], more than 100 µM in the test with P388 and more than 100 µM in the test with L1210 [6]. Besides, the ID90 in the test with Human alphaherpesvirus 1 stood at 32 µM; with HSV-2 it was 125 µM.

`C=C1[C@H](n2cc(F)c(=O)[nH]c2=O)O[C@H](CO)[C@H]1O`: the EC50 in the test with CCRF S-180 is 6.5 µM; in the test with CCRF-CEM [1] it was 30 µM; in the test on P388 it was more than 100 µM; with L1210 [6], 22 µM. For the same molecule, the ID90 with Human alphaherpesvirus 1 and in the test with HSV-2 was more than 250 µM each time.

`C=C1C(CO)OC(n2ccc(=O)[nH]c2=O)C1O` (stereo not given): the EC50 with CCRF S-180, in the test with CCRF-CEM [1], in the test on P388 and in the test with L1210 [6] was more than 100 µM each time.

Regarding `C=C1C(CO)OC(n2ccc(N)nc2=O)C1O` (stereo not given), the EC50 with CCRF S-180, in the test with CCRF-CEM [1], in the test on P388 and in the test with L1210 [6] was more than 100 µM in each case. Besides, the ID90 with Human alphaherpesvirus 1 and in the test on HSV-2 was more than 250 µM in each case.

Regarding `C=C1[C@H](n2cc(C)c(=O)[nH]c2=O)O[C@H](CO)[C@H]1O`, the EC50 in the test with CCRF S-180 was more than 100 µM; in the test with CCRF-CEM [1] it was 10 µM; with P388, more than 100 µM; in the test on L1210 [6] it was more than 100 µM.

Regarding `Nc1ccn([C@@H]2O[C@H](CO)[C@@H](O)[C@@H]2O)c(=O)n1` [CYTARABINE], the Long-term survivors entry in the test with Mus musculus [10], with Mus musculus [11] and in the test with Mus musculus [12] was “inactive” throughout. Besides, the EC50 in the test with CCRF S-180 is 0.2 µM; in the test on CCRF-CEM [1] it was 0.006 µM; with P388, 0.02 µM; in the test on CCRF-CEM [3] it was 120 µM; in the test on L1210 [6], 0.05 µM. Moreover, the Toxic deaths entry with Mus musculus [13] and with Mus musculus [14] was “Active” throughout. Further, the figures for the “Average survival (days)” value with Mus musculus [15], in the test with Mus musculus [17] and with Mus musculus [19] were 8.4, 9.6 and 19.7, respectively. Further, the T/C is 111 in the test with Mus musculus [16], 126 in the test with Mus musculus [18] and 258 in the test with Mus musculus [20]. Besides, the Toxic deaths result in the test on Mus musculus [21] was “Partially active”.

Regarding `C=C1[C@H](n2ccc(=O)[nH]c2=O)O[C@H](CO)[C@H]1O`, the EC50 in the test on CCRF S-180, with CCRF-CEM [1], in the test on P388 and with L1210 [6] was more than 100 µM each time. The ID90 in the test on Human alphaherpesvirus 1 and in the test on HSV-2 was 50 µM throughout.

Take `C=C1C(n2ccc(N)nc2=O)O[C@H](CO)[C@@H]1O` (stereo not given in full): the EC50 with CCRF S-180 was 1.5 µM; in the test with CCRF-CEM [1], 0.03 µM; with P388, 0.4 µM; in the test with CCRF-CEM [3] it was 77 µM; in the test on L1210 [6], 0.3 µM. Moreover, the figures for the “Average survival (days)” value in the test on Mus musculus [15], in the test on Mus musculus [17] and in the test with Mus musculus [19] were 20.8, 21 and 21.6, respectively. Further, the T/C worked out at 276 in the test with Mus musculus [22], 273 in the test with Mus musculus [23] and 284 in the test with Mus musculus [20]. Moreover, the results for the ID90 in the test with Human alphaherpesvirus 1 and in the test on HSV-2 were 26 µM and 5 µM, respectively.
